What was measured:
[1] = test system: A-Grafts (assembled human vascular networks); experiment: A-Graft revascularization after implantation into nude mice; format: in vivo
Method: (§1) Photopolymerizable methacrylated gelatin (GelMA) hydrogel was synthesized as previously described (Chen, et al. Adv. Funct. Mater. 22: 2027-2039 (2012)). GelMA prepolymer solution was prepared in PBS at 80° C. (5 w/v % final) with photoinitiator Irgacure 2959 (0.5 w/v %; CIBA Chemicals), and then allowed to cool down to 37° C. in a water bath. ECFCs and MSCs (4×10^5 total; 1:1 ratio) were suspended in 200 μL of GelMA solution and the mixture was polymerized by exposure to 7.5 mW/cm^2 UV light for 15 s at 37° C. Polymerized cell-laden constructs were referred to as unassembled grafts or U-Grafts. Alternatively, on indicated experiments, U-Grafts were constructed with ice-cold Phenol Red-free Matrigel (BD Bioscience). […]
(§2) Microvessel density was reported as the average number of erythrocyte-filled vessels (vessels/mm^2) in H&E-stained sections from the middle of the implants as previously described (Melero-Martin, et al. Circ. Res. 103:194-202 (2008)). The entire area of each section was analyzed. On specified experiments, human-specific microvessel density was quantified by evaluation of slides immunostained for human-specific CD31 (h-CD31). Perfused microvessel density was measured by injection of FITC-labeled lectins (UEA-1 or Iso-B4) before euthanizing graft-bearing mice, followed by staining of lectin-labeled vessels with anti-UEA-1 or anti-FITC antibodies. […]

[2] = test system: m-Islets endogenous gfp+ microvessels; experiment: Vascular sprouting of m-Islets embedded in hydrogel in vitro; format: cell-based, mouse; conditions: 7 days in vitro
Source text: In order to develop an interface for the engraftment of islets, we embedded isolated m-Islets in our hydrogel in the presence or absence of DAPT (a γ-secretase inhibitor) and examined the effect on the vasculature of islets for 7 days. […] This is consistent with previous data in which transiently blocking Notch enhanced the revascularization potential of A-grafts (FIG. 14) (52). We also examined the effect of unassembled DsRed-ECFCs (FIG. 19B). […] Moreover, the newly formed ECFC-lined vessels (DsRed+) interacted with the gfp+ vasculature of the m-Islets, and this interconnectivity was enhanced in the presence of DAPT (FIG. 19B).

CXCL1, CXCL8, and IL6 = experiment: Human cytokine protein array of conditioned media from A-Grafts; format: cell-based; conditions: A-Grafts exposed for 24 h
Method: as §1, with “Bioscience). Assembled grafts or A-Grafts were constructed by culturing U-Grafts in vitro for 7 days using EGM2 with […]. A-Grafts contained easily observable, fully-assembled vascular networks. Both, U-Grafts and A-Grafts were subcutaneously implanted into back of 6-week-old male athymic nu/nu mice for engraftment studies. On specified experiments, DsRed-labeled ECFCs were used to visualize the formation of assembled vascular networks in A-Grafts.” for “Bioscience).”
The presence of selected cytokines was evaluated in samples of CM with human cytokine protein arrays (R&D Systems Inc.) according to the manufacturer's instructions. […]

neutrophils [3] = experiment: Neutrophil recruitment into implanted A-Grafts at day 2 (flow cytometry); format: in vivo, nude mice
Method: as §1
(§3) Grafts were removed from euthanized mice and cells were retrieved by enzymatic (1 mg/mL collagenase and 2.5 U/mL dispase) digestion for 1 h at 37° C. […] Retrieved cells were also stained for flow cytometry and analyzed using a Guava easyCyte 6HT/2L flow cytometer (Millipore Corporation, Billerica, Mass.) and FlowJo software (Tree Star Inc., Ashland, Oreg.). […] In indicated experiments, retrieved cells were sorted into mCD45+/mLy6G+(neutrophils) and mCD45+/mLy6G−cells by fluorescence-activated cell sorting (FACS) using a FACSAria II 5-LASER sorter system (BD Bioscience). Sorted cells were analyzed immediately for gene expression by qPCR. […]

neutrophils [4] = experiment: Neutrophil recruitment plug assay; format: in vivo, nu/nu mice; conditions: Matrigel plugs containing CM, day 2
Method: Concentrated CM (50 μL) was mixed with 200-μL of Matrigel and injected subcutaneously into nu/nu mice. After 2 days, plugs were explanted and infiltrated cells were retrieved by enzymatic digestion and subjected to flow cytometric analysis. Concentrated basal media (basal-M: EBM-2, 5% FBS) served as control. In indicated experiments, neutralizing antibodies against IL6, CXCL1 or CXCL8 (5 μg/antibody/plug) were added to concentrated CM 30 min prior to implantation. Individual neutralizing antibodies and the combination of three were compared.

[5] = test system: U-Grafts (human ECFCs + MSCs); experiment: U-Graft vascularization after subcutaneous implantation into treated nude mice; format: in vivo; design: number of perfused vessels at day 7 in U-grafts: dose or concentration left out as unconfirmed; conditions: for U-Graft vascularization / microvessel density compared with control: U-Grafts in treated mice, day 7
Method: as §1, with “Bioscience). Assembled grafts or A-Grafts were constructed by culturing U-Grafts in vitro for 7 days using EGM2 with […]. A-Grafts contained easily observable, fully-assembled vascular networks. Both, U-Grafts and A-Grafts were subcutaneously implanted into back of 6-week-old male athymic nu/nu mice for engraftment studies. On specified experiments, DsRed-labeled ECFCs were used to visualize the formation of assembled vascular networks in A-Grafts.” for “Bioscience).”
as §2
[…] Neutrophil recruitment at day 2 and graft vascularization at day 7 were measured as described before. […]

neutrophils [6] = experiment: Neutrophil recruitment into implanted U-Grafts at day 2 (flow cytometry); format: in vivo, nude mice; conditions: 7.5 mg/kg intraperitoneally daily
Method: as §1, §3

CXCR2 = biological target: T1, CXCR2 (Homo sapiens, UniProt P25025); conditions: in vitro and in vivo, previous studies; cited from earlier work
T1 sequence (P25025 1-360): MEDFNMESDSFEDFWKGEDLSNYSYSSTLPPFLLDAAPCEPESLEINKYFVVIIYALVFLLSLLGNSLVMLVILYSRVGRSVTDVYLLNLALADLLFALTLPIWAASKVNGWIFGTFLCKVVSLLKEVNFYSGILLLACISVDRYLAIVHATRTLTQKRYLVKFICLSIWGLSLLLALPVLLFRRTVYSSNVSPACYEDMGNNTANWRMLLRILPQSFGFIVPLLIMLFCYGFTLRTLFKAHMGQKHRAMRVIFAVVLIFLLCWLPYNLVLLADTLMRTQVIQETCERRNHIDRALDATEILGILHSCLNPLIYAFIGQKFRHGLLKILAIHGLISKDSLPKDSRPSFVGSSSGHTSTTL

Row | Compound | perivascular coverage (α-SMA+ cells) of human vessels in A-Grafts ([1]; day 7, A-Grafts treated 24 h before implantation) | perfused microvessel networks in A-Grafts ([1]; day 7 in vivo, compared with untreated / basal-M A-Grafts) | sprouting activity of endogenous gfp+ microvessels (number and length of sprouts) ([2]; m-Islets in hydrogel, vs untreated islets) | interconnectivity between ECFC-lined vessels (DsRed+) and m-Islets vasculature (gfp+) ([2]; m-Islets with unassembled DsRed-ECFCs in hydrogel) | expression of cytokines in conditioned media of A-Grafts (CXCL1, CXCL8, and IL6) | neutrophils in A-Grafts compared with control (neutrophils [3]) | neutrophil recruitment into subcutaneous plugs (neutrophils [4]) | U-Graft vascularization / microvessel density compared with control [5] | number of perfused vessels at day 7 in U-grafts ([5]; mice treated daily, intraperitoneal) | neutrophil presence in implanted U-Grafts (neutrophils [6]) | neutrophil chemotaxis in response to CXCL8 (CXCR2)
1 | C[C@H](NC(=O)Cc1cc(F)cc(F)c1)C(=O)N[C@H](C(=O)OC(C)(C)C)c1ccccc1 [DAPT, N—[N-(3,5-Difluorophenylacetyl-L-alanyl)]-S-phenylglycine t-Butyl ester] | did not compromise proper perivascular coverage | more extensive networks of perfused microvessels | significantly higher | enhanced | reactivated the expression of several cytokines | significantly more | recruited significantly more neutrophils | – | – | – | –
2 | NC(=O)c1ccc(-c2nc(-c3ccccn3)c(-c3ccc4c(c3)OCO4)[nH]2)cc1 [SB432542] | – | – | – | – | – | – | – | completely abrogated | insignificant | – | –
3 | O=C(Nc1ccc([N+](=O)[O-])cc1O)Nc1ccccc1Br [SB225002] | – | – | – | – | – | – | – | significantly lower | – | significantly impaired | effectively inhibits

— patent US11679126B2, “Methods to enhance microvascular engraftment of bioengineered and primary tissues” (Children's Medical Center Corporation, priority 2016, dated 2023)
